What was measured:
Serine protease 1 = Serine protease 1 (Homo sapiens, UniProt P07477); experiment: Tested for selectivity against trypsin
Coagulation factor X = Coagulation factor X (Homo sapiens, UniProt P00742); experiment: Tested for selectivity against Coagulation factor X
Prothrombin = Prothrombin (Homo sapiens, UniProt P00734); experiment: Tested for the binding affinity against thrombin

Chain of Serine protease 1 (P07477 whole entry): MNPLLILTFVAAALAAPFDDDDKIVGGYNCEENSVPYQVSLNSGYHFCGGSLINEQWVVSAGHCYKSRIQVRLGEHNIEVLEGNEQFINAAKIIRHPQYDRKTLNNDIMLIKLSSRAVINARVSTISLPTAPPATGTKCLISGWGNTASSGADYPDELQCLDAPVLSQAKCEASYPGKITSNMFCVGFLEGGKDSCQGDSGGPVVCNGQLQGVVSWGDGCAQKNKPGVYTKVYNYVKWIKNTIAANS
Chain of Coagulation factor X (P00742 41-179 limits assumed): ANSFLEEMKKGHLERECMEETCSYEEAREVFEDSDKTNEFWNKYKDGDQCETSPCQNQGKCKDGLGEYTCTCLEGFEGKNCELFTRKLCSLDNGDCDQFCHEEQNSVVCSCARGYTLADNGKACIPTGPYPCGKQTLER
Chain of Coagulation factor X (P00742 235-488 limits assumed): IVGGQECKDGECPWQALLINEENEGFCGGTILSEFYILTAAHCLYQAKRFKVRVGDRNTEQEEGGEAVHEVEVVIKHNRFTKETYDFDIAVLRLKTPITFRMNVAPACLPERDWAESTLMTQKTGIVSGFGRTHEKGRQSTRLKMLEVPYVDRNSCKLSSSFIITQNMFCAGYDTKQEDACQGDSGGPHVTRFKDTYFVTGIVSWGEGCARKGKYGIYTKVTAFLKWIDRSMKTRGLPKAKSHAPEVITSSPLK

Row | Ki (Serine protease 1) | Ki (Coagulation factor X) | Ki (Prothrombin) | SMILES
1 | 40 nM | 0.97 µM | 3.2 nM | CCCCS(=O)(=O)N[C@H](Cc1ccccc1)C(=O)N1CCC[C@H]1C(=O)N[C@@H](CCCn1ccnc1N)B1O[C@@H]2CC3CC(C3(C)C)[C@]2(C)O1 (stereo partly specified)
2 |  |  | 8.8 nM | CCCCS(=O)(=O)N[C@H](Cc1ccccc1)C(=O)N1CCC[C@H]1C(=O)N[C@@H](CCCSc1ncccn1)B1O[C@@H]2CC3CC(C3(C)C)[C@]2(C)O1 (stereo partly specified)
3 | > 1200 nM | > 6 µM | 600 nM | CC(=O)N[C@H](Cc1ccccc1)C(=O)N1CCC[C@H]1C(=O)N[C@@H](CCCNc1ncccn1)B1O[C@@H]2CC3CC(C3(C)C)[C@]2(C)O1 (stereo partly specified)
4 | > 1200 nM | 6 µM | 350 nM | CC(=O)N[C@H](Cc1ccccc1)C(=O)N1CCC[C@H]1C(=O)N[C@@H](CCCn1nnnc1N)B1O[C@@H]2CC3CC(C3(C)C)[C@]2(C)O1 (stereo partly specified)
5 |  |  | 150 nM | CC(=O)N[C@H](Cc1ccccc1)C(=O)N1CCC[C@H]1C(=O)N[C@@H](CCCNc1ccnc(N)n1)B1O[C@@H]2CC3CC(C3(C)C)[C@]2(C)O1 (stereo partly specified)
6 | 214 nM | > 6 µM | 2.1 nM | CCCCS(=O)(=O)N[C@H](Cc1ccccc1)C(=O)N1CCC[C@H]1C(=O)N[C@@H](CCCNc1cc(Cl)nc(N)n1)B1O[C@@H]2CC3CC(C3(C)C)[C@]2(C)O1 (stereo partly specified)
7 | > 1200 nM | 6 µM | 15 nM | CCCCS(=O)(=O)N[C@H](Cc1ccccc1)C(=O)N1CCC[C@H]1C(=O)N[C@@H](CCCn1ccnc1[N+](=O)[O-])B1O[C@@H]2CC3CC(C3(C)C)[C@]2(C)O1 (stereo partly specified)
8 | 20 nM | > 6 µM | 1.7 nM | CC(=O)N[C@H](Cc1ccccc1)C(=O)N1CCC[C@H]1C(=O)N[C@@H](CCCn1ccnc1N)B1O[C@@H]2CC3CC(C3(C)C)[C@]2(C)O1 (stereo partly specified)
9 | > 1200 nM |  | 2000 nM | CC(=O)N[C@H](Cc1ccccc1)C(=O)N1CCC[C@H]1C(=O)N[C@@H](CCCSc1ncccn1)B1O[C@@H]2CC3CC(C3(C)C)[C@]2(C)O1 (stereo partly specified)
10 | > 1200 nM | > 6 µM | 199 nM | CC(=O)N[C@H](Cc1ccccc1)C(=O)N1CCC[C@H]1C(=O)N[C@@H](CCCn1ncnc1[N+](=O)[O-])B1O[C@@H]2CC3CC(C3(C)C)[C@]2(C)O1 (stereo partly specified)
11 | > 1200 nM | > 6 µM | 650 nM | CC(=O)N[C@H](Cc1ccccc1)C(=O)N1CCC[C@H]1C(=O)N[C@@H](CCCn1ccnc1[N+](=O)[O-])B1O[C@@H]2CC3CC(C3(C)C)[C@]2(C)O1 (stereo partly specified)
12 | > 1200 nM | > 6 µM | 507 nM | CC(=O)N[C@H](Cc1ccccc1)C(=O)N1CCC[C@H]1C(=O)N[C@@H](CCCn1ncnc1N)B1O[C@@H]2CC3CC(C3(C)C)[C@]2(C)O1 (stereo partly specified)
13 |  | 0.009 µM |  | CC(=O)N[C@H](Cc1ccccc1)C(=O)N1CCC[C@H]1C(=O)N[C@@H](CCCN=C(N)N)B(O)O
14 | 27 nM | 6 µM | 67 nM | CC(=O)N[C@H](Cc1ccccc1)C(=O)N1CCC[C@H]1C(=O)N[C@@H](CCCn1ccnc1)B1O[C@@H]2CC3CC(C3(C)C)[C@]2(C)O1 (stereo partly specified)
15 | > 1200 nM | > 6 µM | 43 nM | CC(=O)N[C@H](Cc1ccccc1)C(=O)N1CCC[C@H]1C(=O)N[C@@H](CCCNc1cc(Cl)nc(N)n1)B1O[C@@H]2CC3CC(C3(C)C)[C@]2(C)O1 (stereo partly specified)
16 | > 1200 nM | > 6 µM | 230 nM | CC(=O)N[C@H](Cc1ccccc1)C(=O)N1CCC[C@H]1C(=O)N[C@@H](CCCNc1ccccn1)B1O[C@@H]2CC3CC(C3(C)C)[C@]2(C)O1 (stereo partly specified)

Reference: ChEMBL document CHEMBL1129866, “S1 heterocyclic thrombin inhibitors” (Bioorg Med Chem Lett, 1997)
